According to patent publication US10070645B2, “N-cycloalkyl-N-{[2-(1-substitutedcycloalkyl)phenyl]methylene}-(thio)carboxamide derivatives” (BAYER CROPSCIENCE AKTIENGESELLSCHAFT, priority 2013, dated 2018):

experiment: log P by HPLC on a reversed-phase column (C 18), EEC Directive 79/831 Annex V.A8; type: physicochemical; details: HPLC on reversed-phase column (C 18), 40° C., 0.1% aqueous formic acid and acetonitrile, linear gradient 10% to 90% acetonitrile
Description: In table 1, the log P values were determined in accordance with EEC Directive 79/831 Annex V.A8 by HPLC (High Performance Liquid Chromatography) on a reversed-phase column (C 18), using the method described below:
Temperature: 40° C.; Mobile phases: 0.1% aqueous formic acid and acetonitrile; linear gradient from 10% acetonitrile to 90% acetonitrile.
Calibration was carried out using unbranched alkan-2-ones (comprising 3 to 16 carbon atoms) with known log P values (determination of the log P values by the retention times using linear interpolation between two successive alkanones). lambda-max-values were determined using UV-spectra from 200 nm to 400 nm and the peak values of the chromatographic signals.

`Cn1nc(C(F)F)c(C(=O)N(Cc2cc(F)ccc2C2(C)CC2(Cl)Cl)C2CC2)c1F` (racemic) [I.170] and `Cc1ccc(C2(C)CC2(Cl)Cl)c(CN(C(=O)c2c(C(F)F)nn(C)c2F)C2CC2)c1` (racemic) [I.172] are within 0.2 log units of each other in logP: 4.09 for the first, 4.24 for the second.

`Cn1nc(C(F)F)c(C(=O)N(Cc2c(C3(C)CC3(Cl)Cl)ccc(Cl)c2F)C2CC2)c1F` (racemic) [I.176] and `Cc1ccc(C2(C)CC2(Cl)Cl)c(CN(C(=O)c2c(C(F)F)nn(C)c2F)C2CC2)c1F` (racemic) [I.179] are within 0.2 log units of each other in logP: 4.46 for the first, 4.41 for the second.

Going from `Cn1nc(C(F)F)c(C(=O)N(Cc2cc(Cl)ccc2C2(C)CC2(Cl)Cl)C2CC2)c1F` (racemic) [I.168] to `Cc1ccc(C2(CC(C)C)CC2)c(CN(C(=O)c2c(C(F)F)nn(C)c2F)C2CC2)c1` [I.159], the logP rises from 4.39 to 5.36.

same assay, conditions: HPLC, reversed-phase column (C 18), 40° C., 0.1% aqueous formic acid and acetonitrile, linear gradient 10% to 90% acetonitrile

First: Cn1nc(C(F)F)c(C(=O)N(Cc2cc(Br)ccc2C2(C)CC2)C2CC2)c1F [I.058]
Second: CCc1ccc(C2(C)CC2)c(CN(C(=O)c2c(C(F)F)nn(C)c2F)C2CC2)c1 [I.065]
The logP of the first is lower: 4.36 for the first, 4.56 for the second.

Going from `CCC1(c2ccccc2CN(C(=S)c2c(C(F)F)nn(C)c2F)C2CC2)CC1` [I.098] to `Cn1nc(C(F)F)c(C(=S)N(Cc2ccccc2C2(C)CC2)C2CC2)c1Cl` [I.004], the logP falls from 4.85 to 4.63.

Compared with `Cn1nc(C(F)F)c(C(=O)N(Cc2cccc(-c3ccccc3)c2C2(C)CC2)C2CC2)c1F` [I.012], `Cn1nc(C(F)F)c(C(=O)N(Cc2ccccc2C2(C)CC2)C2CC2)c1F` [I.001] is lower in logP: 4.73 for the first, 3.85 for the second.

First: COC1(c2ccc(C3=CCCC3)cc2CN(C(=O)c2c(C(F)F)nn(C)c2F)C2CC2)CC1 [I.126]
Second: C=C(C)c1ccc(C2(OC)CC2)c(CN(C(=O)c2c(C(F)F)nn(C)c2F)C2CC2)c1 [I.127]
The logP of the first is higher: 4.76 for the first, 4.12 for the second.

Compared with `Cc1ccc(C2(C(F)F)CC2)c(CN(C(=O)c2c(C(F)F)nn(C)c2F)C2CC2)c1` [I.153], `Cn1nc(C(F)F)c(C(=O)N(Cc2ccc(F)cc2C2(C(F)F)CC2)C2CC2)c1F` [I.144] is lower in logP: 3.64 for the first, 3.41 for the second.

`C=C(C)c1ccc(C2(C)CC2)c(CN(C(=O)c2c(C(F)F)nn(C)c2F)C2CC2)c1` [I.083] and `Cn1nc(C(F)F)c(C(=O)N(Cc2cc(C3CC3)ccc2C2(C)CC2)C2CC2)c1F` [I.064] are within 0.2 log units of each other in logP: 4.67 for the first, 4.56 for the second.

First: CCC1(c2cccc(F)c2CN(C(=O)c2c(C(F)F)nn(C)c2F)C2CC2)CC1 [I.114]
Second: CCCC1(c2cc(Cl)ccc2CN(C(=O)c2c(C(F)F)nn(C)c2F)C2CC2)CC1 [I.128]
The logP of the first is lower: 4.19 for the first, 5.14 for the second.

`Cn1nc(C(F)F)c(C(=O)N(Cc2c(C(F)(F)F)cccc2C2(C)CC2Cl)C2CC2)c1F` (stereo not shown) [I.141] and `Cn1nc(C(F)F)c(C(=O)N(Cc2cc(C(F)(F)F)ccc2C2(C)CC2)C2CC2)c1F` [I.059] are within 0.2 log units of each other in logP: 4.46 for the first, 4.34 for the second.

`C#CC1(c2ccc(C)cc2CN(C(=O)c2c(C(F)F)nn(C)c2Cl)C2CC2)CC1` [I.093] and `C#CC1(c2ccc(Cl)cc2CN(C(=O)c2c(C(F)F)nn(C)c2Cl)C2CC2)CC1` [I.091] are within 0.2 log units of each other in logP: 3.78 for the first, 3.89 for the second.

`CCC1(c2cc(C(F)(F)F)ccc2CN(C(=O)c2c(C(F)F)nn(C)c2Cl)C2CC2)CC1` [I.101] and `CCC1(c2cc(C)ccc2CN(C(=O)c2c(C(F)F)nn(C)c2Cl)C2CC2)CC1` [I.105] are within 0.2 log units of each other in logP: 4.86 for the first, 4.74 for the second.

`Cn1nc(C(F)F)c(C(=O)N(Cc2cc(F)c(F)cc2C2(C)CC2)C2CC2)c1F` [I.048] and `Cn1nc(C(F)F)c(C(=O)N(Cc2ccc(F)cc2C2(C)CC2)C2CC2)c1F` [I.021] are within 0.2 log units of each other in logP: 4.01 for the first, 3.92 for the second.

`COc1cc(CN(C(=O)c2c(C(F)F)nn(C)c2Cl)C2CC2)c(C2(C)CC2)cc1OC` [I.054] and `COc1cc(CN(C(=O)c2c(C(F)F)nn(C)c2F)C2CC2)c(C2(C)CC2)cc1OC` [I.053] are within 0.2 log units of each other in logP: 3.46 for the first, 3.33 for the second.

First: CCCC1(c2cc(Cl)ccc2CN(C(=O)c2c(C(F)F)nn(C)c2Cl)C2CC2)CC1 [I.129]
Second: Cn1nc(C(F)F)c(C(=O)N(Cc2ccc(Cl)cc2C2(C)CC2)C2CC2)c1Cl [I.019]
The logP of the first is higher: 5.31 for the first, 4.54 for the second.

Going from `Cc1ccc(C2(C)CC2)c(CN(C(=O)c2c(C(F)F)nn(C)c2F)C2CC2)c1F` [I.087] to `Cn1nc(C(F)F)c(C(=O)N(Cc2ccc(Cl)cc2C2(C)CC2)C2CC2)c1F` [I.018], the logP rises from 4.21 to 4.43.

`Cn1nc(C(F)F)c(C(=S)N(Cc2ccc(F)cc2C2(C)CC2)C2CC2)c1F` [I.023] and `Cn1nc(C(F)F)c(C(=S)N(Cc2cc(F)ccc2C2(C)CC2)C2CC2)c1F` [I.068] are within 0.2 log units of each other in logP: 4.56 for the first, 4.49 for the second.

First: Cc1ccc(C2(C(C)C)CC2)c(CN(C(=O)c2c(C(F)F)nn(C)c2Cl)C2CC2)c1 [I.136]
Second: Cc1ccc(CN(C(=O)c2c(C(F)F)nn(C)c2Cl)C2CC2)c(C2(C)CC2)c1 [I.027]
The logP of the first is higher: 5.11 for the first, 4.36 for the second.

Compared with `Cn1nc(C(F)F)c(C(=O)N(Cc2cccc(C3=CC4CCC3C4)c2C2(C)CC2)C2CC2)c1F` (stereo not shown) [I.013], `Cn1ccc(-c2ccc(CN(C(=O)c3c(C(F)F)nn(C)c3F)C3CC3)c(C3(C)CC3)c2)c1` [I.034] is lower in logP: 5.78 for the first, 4.15 for the second.

First: COc1cc(CN(C(=S)c2c(C(F)F)nn(C)c2F)C2CC2)c(C2(C)CC2)cc1OC [I.055]
Second: Cc1cc(CN(C(=O)c2c(C(F)F)nn(C)c2Cl)C2CC2)c(C2(C)CC2)cc1C [I.052]
The logP of the first is lower: 3.96 for the first, 4.53 for the second.

`Cn1nc(C(F)F)c(C(=O)N(Cc2c(Br)cccc2C2(C(F)F)CC2)C2CC2)c1F` [I.155] and `Cn1nc(C(F)F)c(C(=O)N(Cc2cc(Cl)ccc2C2(C(F)F)CC2)C2CC2)c1Cl` [I.148] are within 0.2 log units of each other in logP: 3.76 for the first, 3.85 for the second.

First: CC(C)CC1(c2cc(Cl)ccc2CN(C(=O)c2c(C(F)F)nn(C)c2F)C2CC2)CC1 [I.157]
Second: COC1(c2ccc(Cl)cc2CN(C(=O)c2c(C(F)F)nn(C)c2Cl)C2CC2)CC1 [I.119]
The logP of the first is higher: 5.42 for the first, 3.87 for the second.

same assay, conditions: Table 3 (amines of formula II); HPLC C 18, 40° C., 0.1% aqueous formic acid and acetonitrile

Work on `C[Si](C)(C)C#CC1(c2ccc(Cl)cc2CNC2CC2)CC1` [II.18, N-(5-chloro-2-{1-[(trimethylsilyl)ethynyl]cyclopropyl}benzyl)cyclopropanamine] yielded a chromatographic logP of 2.07.

same assay, conditions: reversed-phase HPLC column (C 18); Table 3 (amines of formula II); HPLC C 18, 40° C., 0.1% aqueous formic acid and acetonitrile

`CCC1(c2cc(C)ccc2CNC2CC2)CC1` [II.26, N-[2-(1-ethylcyclopropyl)-4-methylbenzyl]cyclopropanamine] and `CCC1(c2cc(Cl)ccc2CNC2CC2)CC1` [II.25, N-[4-chloro-2-(1-ethylcyclopropyl)benzyl]cyclopropanamine] are within 0.2 log units of each other in chromatographic logP: 1.47 for the first, 1.65 for the second.

Compared with `C#CC1(c2ccc(Cl)cc2CNC2CC2)CC1` [II.16, N-[5-chloro-2-(1-ethynylcyclopropyl)benzyl]cyclopropanamine], `CCC1(c2ccc(Cl)cc2CNC2CC2)CC1` [II.29, N-[5-chloro-2-(1-ethylcyclopropyl)benzyl]cyclopropanamine] is higher in chromatographic logP: 1.22 for the first, 1.66 for the second.

Going from `Cc1ccc(C2(C)CC2)c(CNC2(C#N)CC2)c1` [II.14, 1-{[5-methyl-2-(1-methylcyclopropyl)benzyl]amino}cyclopropanecarbonitrile] to `Cc1ccc(C2(C)CC2)c(CNC2(C)CC2)c1` [II.13, 1-methyl-N-[5-methyl-2-(1-methylcyclopropyl)benzyl]cyclopropanamine], the chromatographic logP falls from 4.07 to 1.45.

First: COCC1(c2ccc(C)cc2CNC2CC2)CC1 [II.22, N-{2-[1-(methoxymethyl)cyclopropyl]-5-methylbenzyl}cyclopropanamine]
Second: CCCC1(c2ccc(C)cc2CNC2CC2)CC1 [II.33, N-[5-methyl-2-(1-propylcyclopropyl)benzyl]cyclopropanamine]
The chromatographic logP of the first is lower: 1.49 for the first, 1.81 for the second.

`CC1(c2ccc(Br)cc2CNC2CC2)CC1` [II.09, N-[5-bromo-2-(1-methylcyclopropyl)benzyl]cyclopropanamine] and `Cc1ccc(C2(C)CC2)c(CNC2CC2)c1` [II.12, N-[5-methyl-2-(1-methylcyclopropyl)benzyl]cyclopropanamine] are within 0.2 log units of each other in chromatographic logP: 1.43 for the first, 1.38 for the second.

`FC(F)C1(c2ccccc2CNC2CC2)CC1` [II.36, N-{2-[1-(difluoromethyl)cyclopropyl]benzyl}cyclopropanamine] and `CC1(c2ccccc2CNC2CC2)CC1` [II.01, N-[2-(1-methylcyclopropyl)benzyl]cyclopropanamine] are within 0.2 log units of each other in chromatographic logP: 0.92 for the first, 1.1 for the second.

`CC1(c2ccc(F)cc2CNC2CC2)CC1` [II.11, N-[5-fluoro-2-(1-methylcyclopropyl)benzyl]cyclopropanamine] and `Cc1ccc(C2(Cl)CC2)c(CNC2CC2)c1` [II.34, N-[2-(1-chlorocyclopropyl)-5-methylbenzyl]cyclopropanamine] are within 0.2 log units of each other in chromatographic logP: 1.37 for the first, 1.34 for the second.

Molecule `CC1(c2cc(Cl)c(Cl)cc2CNC2CC2)CC1` [II.07, N-[4,5-dichloro-2-(1-methylcyclopropyl)benzyl]cyclopropanamine] has a chromatographic logP of 1.79.

same assay, conditions: reversed-phase HPLC column (C 18); Table 4 (aldehydes of formula IV); HPLC C 18, 40° C., 0.1% aqueous formic acid and acetonitrile

Compared with `Cc1ccc(C2(C(F)F)CC2)c(C=O)c1` [IV.21, 2-[1-(difluoromethyl)cyclopropyl]-5-methylbenzaldehyde], `CC1(c2ccc(F)cc2C=O)CC1` [IV.11, 5-fluoro-2-(1-methylcyclopropyl)benzaldehyde] is higher in chromatographic logP: 3.01 for the first, 3.22 for the second.

First: CCCC1(c2cc(Cl)ccc2C=O)CC1 [IV.19, 4-chloro-2-(1-propylcyclopropyl)benzaldehyde]
Second: CC1(c2ccccc2C=O)CC1 [IV.01, 2-(1-methylcyclopropyl)benzaldehyde]
The chromatographic logP of the first is higher: 4.69 for the first, 3.02 for the second.

With `CC1(c2cc(F)c(F)cc2C=O)CC1` [IV.06, 4,5-difluoro-2-(1-methylcyclopropyl)benzaldehyde] the chromatographic logP was 3.44.
